Values after ≈ are worked out from the molar mass of the structure shown. Values joined by “and” are separate entries in the source; they are usually repeats but may differ in a detail not shown here. Identical values can stand only once.
Legend:
Experiment in all cases: ≥ marks a high value that may be exact or a test limit, other limits are often not marked, values filed in µg/mL are converted to µM
[1] = test system: Bacillus cereus NCDC 0240
[2] = test system: Salmonella enterica subsp. enterica serovar Typhimurium ATCC 700931
[3] = test system: Acinetobacter baumannii ATCC 19606
[4] = test system: Staphylococcus aureus NCDC 0111
[5] = test system: Staphylococcus aureus ATCC 35556
Escherichia coli D31 = test system: Escherichia coli D31
[6] = test system: Escherichia coli MTCC 0723
[7] = test system: Salmonella enterica subsp. enterica serovar Typhimurium ATCC 14028
[8] = test system: Klebsiella pneumoniae ATCC 700603
[9] = test system: Pseudomonas aeruginosa PAO1
[10] = test system: Staphylococcus aureus ATCC 29213
[11] = test system: Acinetobacter johnsonii NCDC 0072
[12] = test system: Bacillus subtilis ATCC 6051
[13] = test system: Listeria monocytogenes ATCC 19111
[14] = test system: Pseudomonas aeruginosa NCDC 0105
[15] = test system: Pseudomonas aeruginosa ATCC 27853
[16] = test system: Klebsiella pneumoniae IS59#
[17] = test system: Candida albicans ATCC 90028
[18] = test system: Escherichia coli NCTC 10418
[19] = test system: Enterobacter cloacae ATCC 13047
[20] = test system: Staphylococcus aureus IS10#
[21] = test system: Escherichia coli ATCC 25922
[22] = test system: Pseudomonas aeruginosa IS350#
[23] = test system: Staphylococcus aureus ATCC 25923
[24] = test system: Staphylococcus aureus NCTC 10788
Shigella dysenteriae = test system: Shigella dysenteriae
[25] = test system: Candida albicans NCYC 1467
[26] = test system: Enterococcus faecalis ATCC 29212
[27] = test system: Pseudomonas aeruginosa CMCCB 1010
Escherichia coli IS117# = test system: Escherichia coli IS117#
[28] = test system: Staphylococcus aureus IS37#
[29] = test system: Candida parapsilosis ATCC 22019
Escherichia coli IS37# = test system: Escherichia coli IS37#
[30] = test system: Candida albicans ATCC 2002
Escherichia coli IS218# = test system: Escherichia coli IS218#
Escherichia coli HB101 = test system: Escherichia coli HB101
[31] = test system: Salmonella enterica serovar Tennessee
Escherichia coli JW0013 = test system: Escherichia coli JW0013
[32] = test system: Escherichia coli JW0368 ΔsbmA
Escherichia coli J2210 = test system: Escherichia coli J2210
Escherichia coli JJ2489 = test system: Escherichia coli JJ2489
[33] = test system: Salmonella enterica subsp. enterica serovar Enteritidis MH91989
Escherichia coli = test system: Escherichia coli
[34] = test system: Salmonella typhimurium SL1344
Escherichia coli MC1041 = test system: Escherichia coli MC1041
[35] = test system: Salmonella enterica subsp. enterica serovar Newport
[36] = test system: Salmonella enterica subsp. enterica serovar Infantis
[37] = test system: Escherichia coli JW2778 ΔygdD
[38] = test system: Staphylococcus aureus KCTC 1621
[39] = test system: Staphylococcus epidermidis KCTC 1917
[40] = test system: Staphylococcus aureus NCTC 12981
[41] = test system: Staphylococcus aureus USA 100
[42] = test system: Escherichia coli KCTC 1682
[43] = test system: Pseudomonas aeruginosa KCTC 1637

CC[C@H](C)[C@H](NC(=O)[C@H](Cc1c[nH]c2ccccc12)NC(=O)[C@@H](NC(=O)[C@H](Cc1c[nH]c2ccccc12)NC(=O)[C@@H]1CCCN1C(=O)[C@@H](NC(=O)[C@H](C)N)[C@@H](C)CC)[C@@H](C)CC)C(=O)N[C@@H](Cc1c[nH]c2ccccc12)C(=O)N[C@@H](CCCN=C(N)N)C(=O)N[C@@H](CC(C)C)C(=O)N[C@@H](CC(C)C)C(=O)N[C@@H](CCCN=C(N)N)C(=O)N[C@@H](CCCCN)C(=O)NCC(=O)O [AIPWIWIWRLLRKG]
MIC [1]: 12.5 µM (≈ 22.6 µg/mL) | MIC [2]: 15 µM (≈ 27.1 µg/mL) | MIC [3]: 3.75 µM (≈ 6.78 µg/mL) | MIC [4]: 0.4 µM (≈ 0.723 µg/mL) | MIC [5]: 3.75 µM (≈ 6.78 µg/mL) | MIC (Escherichia coli D31): 7.5 µM (≈ 13.6 µg/mL) | MIC [6]: 6 µM (≈ 10.8 µg/mL) | MIC [7]: 6 µM (≈ 10.8 µg/mL) | MIC [8]: > 15 µM | MIC [9]: 15 µM (≈ 27.1 µg/mL) | MIC [10]: 0.4 µM (≈ 0.723 µg/mL) | MIC [11]: 12.5 µM (≈ 22.6 µg/mL) | MIC [12]: 0.23 µM (≈ 0.416 µg/mL) | MIC [13]: 12.5 µM (≈ 22.6 µg/mL) | MIC [14]: 3 µM (≈ 5.42 µg/mL) | MIC [15]: 0.4 µM (≈ 0.723 µg/mL)

CC[C@H](C)[C@H](NC(=O)CNC(=O)[C@H](CO)NC(=O)[C@H](CC(C)C)NC(=O)[C@H](CC(C)C)NC(=O)CN)C(=O)N[C@@H](CC(C)C)C(=O)NCC(=O)N[C@@H](C)C(=O)NCC(=O)N[C@@H](CCCCN)C(=O)N[C@@H](CCCCN)C(=O)N[C@H](C(=O)N[C@H](C(=O)N[C@H]1CSSC[C@@H](C(=O)O)NC(=O)[C@H](CC(C)C)NC(=O)CNC(=O)[C@H](CO)NC(=O)[C@H](CC(C)C)NC(=O)CNC1=O)C(C)C)[C@@H](C)CC [GLLSGILGAGKKIVCGLSGLC]
MIC [16]: 5.1 µM (≈ 9.99 µg/mL) | MIC [17]: 2.55 µM (≈ 4.99 µg/mL) | MIC [18]: ≥ 64 µM | MIC [19]: 5.1 µM (≈ 9.99 µg/mL) | MIC [20]: 10.2 µM (≈ 20 µg/mL) | MIC [21]: 5.1 µM (≈ 9.99 µg/mL) | MIC [22]: 5.1 µM (≈ 9.99 µg/mL) | MIC [23]: 2.55 µM (≈ 4.99 µg/mL) | MIC [24]: 32 µM (≈ 62.6 µg/mL) | MIC (Shigella dysenteriae): 2.55 µM (≈ 4.99 µg/mL) | MIC [25]: 32 µM (≈ 62.6 µg/mL) | MIC [26]: 5.1 µM (≈ 9.99 µg/mL) | MIC [27]: 1.28 µM (≈ 2.5 µg/mL) | MIC [8]: 1.28 µM (≈ 2.5 µg/mL) | MIC (Escherichia coli IS117#): 5.1 µM (≈ 9.99 µg/mL) | MIC [28]: 10.2 µM (≈ 20 µg/mL) | MIC [29]: 1.28 µM (≈ 2.5 µg/mL) | MIC (Escherichia coli IS37#): 2.55 µM (≈ 4.99 µg/mL) | MIC [30]: 0.51 µM (≈ 0.999 µg/mL) | MIC [15]: 2.55 µM (≈ 4.99 µg/mL) | MIC (Escherichia coli IS218#): 2.55 µM (≈ 4.99 µg/mL)

CC[C@H](C)[C@H](NC(=O)[C@H](CCCN=C(N)N)NC(=O)[C@@H](N)CCCN=C(N)N)C(=O)N[C@@H](CCCN=C(N)N)C(=O)N1CCC[C@H]1C(=O)N[C@@H](CCCN=C(N)N)C(=O)N1CCC[C@H]1C(=O)N1CCC[C@H]1C(=O)N[C@@H](CCCN=C(N)N)C(=O)N[C@@H](CC(C)C)C(=O)N1CCC[C@H]1C(=O)N[C@@H](CCCN=C(N)N)C(=O)N1CCC[C@H]1C(=O)N[C@@H](CCCN=C(N)N)C(=O)N1CCC[C@H]1C(=O)N[C@@H](CS)C(=O)O [RRIRPRPPRLPRPRPC]
MIC [21]: 11.3 µM (≈ 22.9 µg/mL) | MIC (Escherichia coli HB101): 11.3 µM (≈ 22.9 µg/mL)

CC[C@H](C)[C@H](NC(=O)[C@@H]1CCCN1C(=O)[C@H](CCCN=C(N)N)NC(=O)[C@@H]1CCCN1C(=O)[C@@H]1CCCN1C(=O)[C@@H](NC(=O)[C@@H]1CCCN1C(=O)[C@H](CCCN=C(N)N)NC(=O)[C@@H]1CCCN1C(=O)[C@H](CC(C)C)NC(=O)[C@H](Cc1ccc(O)cc1)NC(=O)[C@H](CO)NC(=O)CNC(=O)[C@H](CCCCN)NC(=O)[C@H](CC(=O)O)NC(=O)[C@@H](N)C(C)C)[C@@H](C)O)C(=O)N[C@@H](Cc1ccc(O)cc1)C(=O)N[C@@H](CC(N)=O)C(=O)N[C@@H](CCCN=C(N)N)C(=O)N[C@@H](CC(N)=O)C(=O)O [VDKGSYLPRPTPPRPIYNRN]
MIC [31]: 0.6 µM (≈ 1.4 µg/mL) | MIC (Escherichia coli JW0013): 0.15 µM (≈ 0.351 µg/mL) | MIC [32]: 2.4 µM (≈ 5.62 µg/mL) | MIC (Escherichia coli J2210): 0.786 µM (≈ 1.84 µg/mL) | MIC (Escherichia coli JJ2489): 0.6 µM (≈ 1.4 µg/mL) | MIC [33]: 1.2 µM (≈ 2.81 µg/mL) | MIC (Escherichia coli): > 0.416 µM and 0.6 µM | MIC [34]: 1.2 µM (≈ 2.81 µg/mL) | MIC (Escherichia coli MC1041): 0.416 µM (≈ 0.974 µg/mL) | MIC [35]: 0.416 µM (≈ 0.974 µg/mL) | MIC [36]: 0.6 µM (≈ 1.4 µg/mL) | MIC [37]: 0.6 µM (≈ 1.4 µg/mL)

NC(=O)[C@H](CCCN=C(N)N)NC(=O)[C@H](Cc1c[nH]c2ccccc12)NC(=O)[C@H](CCCN=C(N)N)NC(=O)[C@@H](N)Cc1c[nH]c2ccccc12 [WRWR]
MIC [18]: ≥ 182 µM | MIC [38]: ≥ 45.5 µM | MIC [39]: 11.4 µM (≈ 7.99 µg/mL) | MIC [40]: ≥ 182 µM | MIC [41]: ≥ 50 µM | MIC [42]: ≥ 45.5 µM | MIC [43]: ≥ 45.5 µM
